# Measured values published in US20100267731A1, “USE OF TRANSFORMING GROWTH FACTOR-B RECEPTOR INHIBITORS TO SUPPRESS OCULAR SCARRING” (Summa Health Systems, LLC, priority 2009, published 2010).
# Tests used:
# [1] = system: subconjunctival tissue fibroblast outgrowth; assay: Subconjunctival tissue fibroblast outgrowth assay ex vivo; format: cell-based, New Zealand white rabbit; details: for cell outgrowth length, explant from 180° control: 180° from the surgical site (180° control)
# Protocol: Under an ophthalmic surgical microscope, subconjunctival tissues were dissected from the surgical site and 180 (6-o'clock position) from the surgical site (the 180° control). Each biopsy specimen (explant) was placed in a 25 cm^2 cell culture flask with complete media. […] The cell outgrowth, in mm, from the edge of each explant was observed, and the length of the outgrowth in 4 quadrants was measured.
# [2] = system: New Zealand white rabbits; assay: Hematoxylin and eosin staining ex vivo of eyes after GFS; format: in vivo; details: for infiltration of inflammatory cells and scarring in the subconjunctival space: H&E, five days after surgery
# Protocol: Five days after surgery, the subjects in Groups A-D were euthanized with Fatal-plus™ (Vortech Pharmaceutical, Dearborn, Mich.) following the manufacturer's instructions. The subject's eyes were enucleated with palpebral margins to keep the conjunctiva epithelium and the subconjunctival space intact. Enucleated eyes were fixed with 10% buffered formalin and 5 μm thick paraffin sections were prepared. The sections were stained with hematoxylin and eosin (H&E) for histological examination, and images were captured using an Olympus DX51 light microscope and DP controller (Olympus, Tokyo, Japan).
# [3] = system: New Zealand white rabbits; assay: Post surgery IOP in vivo; set-up: species or system New Zealand white rabbit; details: rabbit GFS, versus untreated eye
# Protocol: IOP for the animals in groups A-D was measured with a TONO-PEN AVIA® (Reichert Ophthalmic Instruments, Depew, N.Y.) by gently touching the cornea of each subject after topical anesthesia was applied with 0.5% proparacaine. The IOP reading was omitted if its confidence interval was less than 95%. An average of three measurements was taken to deduce IOP.
# [4] = system: cultured rabbit subconjunctival fibroblasts; assay: Toxicity of ALK-5 inhibitors in vitro (cell count by hemocytometer); format: cell-based, New Zealand white rabbit; details: 10.0 of inhibitor pre-treated one hour, then 2 ng/ml TGF-β2 up to 48 hours
# Protocol: Sample fibroblasts were obtained from New Zealand white rabbit eyes. The fibroblasts were derived from the subconjunctival tissues isolated from the eyes of the subjects. The cells were maintained in 25 cm^2 flask using 2 ml of medium composed of Eagle's minimal essential medium, 10% fetal bovine serum, 5% calf serum, essential and nonessential aminoacids, and antibiotics. When the cells reached confluence, they were trypsinized and passaged.
# Three samples of the fibroblasts were prepared. The first sample, sample A, included fibroblast cultures treated with 2 ng/ml of TGF-β2 for up to 48 hours. The second sample, sample B, included fibroblast cultures that were untreated. The third sample included fibroblast cultures pre-treated with 2 ml of a medium including […] of ALK-5 inhibitor SB-505124 for one hour, and were additionally treated with additional 2 ng/ml of TGF-β2 (R&D Systems, Minneapolis, Minn.) for up to 48 hours.
# The number of cells were counted using a hemocytometer (Hausser Scientific, Horsham, PC) after trypsinization. […] Therefore, in addition to inhibiting the expression of TGF-β2 and mitigating the ocular scarring that may result after GFS by using an ALK-5 type inhibitor, the ALK-5 inhibitor appears to have the added benefit of not destroying healthy cells around the surgical site that prevent post-surgery infection.
# [5] = explants taken five days after GFS
SMILES,"cell outgrowth length, explant from 180° control ([1]; over 18 days)",infiltration of inflammatory cells and scarring in the subconjunctival space [2],period IOP of treated eyes was lowered after GFS (in words) ([3]; MMC control),"cell outgrowth from the edge of the subconjunctival tissue explant (qualitative) [1, 5]","difference in cell outgrowth versus untreated group [1, 5]","cell outgrowth length, explant from surgical site ([1]; surgical site, over 18 days)","signs of tissue toxicity ([2]; rabbit, in vivo)","subconjunctival blood vessels ([2]; rabbit, in vivo)",cell number versus samples untreated or treated with TGF-β2 alone [4],time IOP of treated eyes was lowered after GFS ([3]; SB-505124 tablet)
"CO[C@@]12[C@H](COC(N)=O)C3=C(C(=O)C(C)=C(N)C3=O)N1C[C@@H]1N[C@@H]12 [MMC, mitomycin C]",approximately 7 mm,only a few inflammatory cells and mild scarring,throughout the observation period,–,–,–,–,–,–,–
Cc1cccc(-c2[nH]c(C(C)(C)C)nc2-c2ccc3c(c2)OCO3)n1 [SB-505124],approximately 7 mm,only a few inflammatory cells and mild scarring,–,robust,no significant difference,approximately 7 mm,no or very low signs of tissue toxicity,seen,no measurable difference in cell number,up to 10 days
